Common to all, as to experiment: stopped-flow CO2 hydrase assay
Common to all, as to assay type: biochemical
Common to all, as to conditions: CO2 […], […] Hepes pH […] Na2SO4, […] h preincubation at room temperature

In assay [1] the target is T1, hCA IX (Homo sapiens, UniProt Q16790).
T1 construct: gene CA9; recombinant, obtained in-house
An excerpt: stopped-flow CO2 hydrase assay on hCA IX

Assay [2] has as its target T2, hCA XII (Homo sapiens, UniProt O43570).
T2 construct: gene CA12; recombinant, obtained in-house
The source says:
stopped-flow CO2 hydrase assay on hCA XII

Assay [3] deals with T3, hCA II (Homo sapiens, UniProt P00918).
T3 construct: gene CA2; recombinant, obtained in-house
An excerpt: stopped-flow CO2 hydrase assay on hCA II

Assay [4] concerns the target T4, hCA I (Homo sapiens, UniProt P00915).
T4 construct: gene CA1; recombinant, obtained in-house
The source says:
stopped-flow CO2 hydrase assay on hCA I

T2 sequence (O43570 25-354): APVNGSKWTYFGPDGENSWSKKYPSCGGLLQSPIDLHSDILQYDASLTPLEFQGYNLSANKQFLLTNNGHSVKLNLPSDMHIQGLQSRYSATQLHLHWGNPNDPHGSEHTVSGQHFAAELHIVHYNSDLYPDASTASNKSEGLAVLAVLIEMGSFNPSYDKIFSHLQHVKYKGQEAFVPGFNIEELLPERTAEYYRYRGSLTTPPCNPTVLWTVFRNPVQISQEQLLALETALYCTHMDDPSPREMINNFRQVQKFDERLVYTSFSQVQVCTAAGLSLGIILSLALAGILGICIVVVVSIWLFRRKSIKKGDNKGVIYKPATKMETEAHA
T4 sequence (P00915 2-261): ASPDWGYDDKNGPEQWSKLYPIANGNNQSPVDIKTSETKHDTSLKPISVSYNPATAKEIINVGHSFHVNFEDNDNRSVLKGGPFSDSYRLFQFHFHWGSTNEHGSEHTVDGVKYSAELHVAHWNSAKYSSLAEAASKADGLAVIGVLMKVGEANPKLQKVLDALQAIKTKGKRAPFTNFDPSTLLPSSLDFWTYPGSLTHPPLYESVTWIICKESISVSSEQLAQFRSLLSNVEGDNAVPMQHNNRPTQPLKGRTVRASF

What is called Ki is a dissociation constant, usually derived from enzyme kinetics or from competition with a known ligand. A high value points to weaker binding. In the case of “[{(η^5-C5H4)-C(CH3)=N-N(H)-C6H4-4-SO2NH2}]FeCp [3b]”, the Ki in assay [1] is 41.9 nM; in assay [2], 1.9 nM; in assay [3] it was 9.3 nM; in assay [4], 3.6 nM.
In the case of “[{(η^5-C5H4)-C(CH3)=N–N(H)-C6H4-4-SO2NH2}]Mn(CO)3 [2b]”, the Ki is 221 nM in assay [1], 3.3 nM in assay [2], 11.2 nM in assay [3] and 269 nM in assay [4].
The matching figures for “[{(η^5-C5H4)-C(CH3)=N–N(H)-C6H4-4-SO2NH2}]re(CO)3 [1b]”: 25 nM, 3.8 nM, 9.7 nM and 3.7 nM.
For “[{(η^5-C5H4)-CH=N–N(H)-C6H4-4-SO2NH2}]FeCp [3a]” the same measures were 49.9 nM, 4.9 nM, 1.7 nM and 13.2 nM.
In the case of “[{(η^5-C5H4)-CH=N–N(H)-C6H4-4-SO2NH2}]Mn(CO)3 [2a]”, the Ki turned out to be 2.1 nM in assay [1], 3.1 nM in assay [2], 8.2 nM in assay [3] and 5.9 nM in assay [4].
The matching figures for “[{(η^5-C5H4)-CH=N–N(H)-C6H4-4-SO2NH2}]re(CO)3 [1a]”: 580 nM, 24.4 nM, 22.4 nM and 7.5 nM.

Values taken from PMC7034112, “Bioorganometallic derivatives of 4-hydrazino-benzenesulphonamide as carbonic anhydrase inhibitors: synthesis, characterisation and biological evaluation” (Journal of Enzyme Inhibition and Medicinal Chemistry, 2020).
